From patent US9109048B2, “Inhibition of tumor growth” (priority 1998, dated 2015)
Converted amounts (≈) assume the structure as drawn. Where two headings read alike, the source gives them in different places. Square brackets hold non-standard residues; d marks the D form. Ends that are not written are not given here. Peptide text beside a SMILES is read from it. Orn = NCCC[C@H](N)C(=O)O

How the values were obtained:
[1] = test system: Staphylococcus aureus ATCC 25923; test: MIC (minimum inhibitory concentration) test, microdilution; type: cell-based
Method: (§1) The bacterial strains used were: Escherichia coli ATCC 25922 and Staphylococcus aureus ATCC 25923. All strains were stored at −70° C. The bacteria were grown in 2% Bacto Peptone water (Difco 1807-17-4). All tests were performed with bacteria in mid-logarithmic growth phase. Determination of the minimum inhibitory concentration (MIC) of the peptides for bacterial strains were performed in 1% Bacto Peptone water. A standard microdilution technique with an inoculum of 2×10^6 CFU/ml was used. All assays were performed in triplets. Since the peptides are positively charged and therefore could adhere to the plastic wells, we controlled the actual concentration of the peptides in the solution by HPLC. There was no difference between the concentration of the peptides before or after adding the solution to the plastic wells.

[2] = test system: MRSA (methicillin resistant S. aureus); type: cell-based
Method: as §1
(§2) Table 15 below gives the antibacterial activity and toxicity data for some preferred peptides of the invention. MRSA is methicillin resistant S. aureus and MRSE is methicilin resistant S. epidermidis.

[3] = test system: human red blood cells; test: Hemolytic assay; type: cell-based
Method: The hemolytic activities of the peptides were determined using fresh human red blood cells. 8 ml blood was taken from a healthy person. 4 ml blood was transferred to a polycarbonate tube containing heparin to a final concentration of 10 U/ml, and the remaining 4 ml blood was transferred to a glass tube containing EDTA with final concentration of 15% EDTA. The erythrocytes were isolated from heparin-treated blood by centrifugation in 1500 rpm for 10 min and washed three times with phosphate-buffered saline (PBS) to remove plasma and buffy coat. The cell pellet was resuspended in PBS to make the final volume of 4 ml. The peptide was diluted to a concentration of 2 mg/ml and 0.1 mg/ml. The peptide was further diluted to the concentrations as stated in Table 1. For each tube PBS was added first, then RBCs and peptide solutions. The hematocrit in the blood treated with EDTA was determined after 30 min with Sysmex K-1000, and the resuspended RBCs were diluted into 10% hematocrit. RBCs in PBS (1%) with and without peptides (Table 18) were incubated in a shaker at 37° for 1 hour and then centrifuged at 4000 rpm for 5 min. The supernatant were carefully transferred to new polycarbonate tubes and the absorbance of the supernatant was measured at 540 nm. Baseline hemolysis was hemoglobin released in the presence of PBS, and 100% hemolysis was hemoglobin released in the presence of 0.1% Triton X-100.

[4] = test system: Escherichia coli ATCC 25922; test: MIC (minimum inhibitory concentration) test, microdilution; type: cell-based
Method: as §1

[5] = test system: human promyelotic leukemia cell line HL 60; test: Cytotoxicity on HL 60 cells, MTT; type: cell-based
Method: HL 60 cells, 1×10^4 were incubated with peptides 50, 30, 20, 10, 5, 1 μg, 1000-20 μg/ml in 2 hours and coloured with MTT;

[6] = test system: Meth A fibrosarcoma; test: Tumor regression, murine Meth A fibrosarcoma; type: in vivo, mice
Method: Specific pathogen-free CB6F1 (Balb/c×C57 BL/6) female mice of about 8 weeks of age were obtained from Charles River (Germany). The mice were kept on standard laboratory chow and water. Tumor bearing mice were serologically screened for viral (LDH, CMV) and mycoplasmic infection and in all cases tested negative.
After a single inoculation of 5×10^7 viable Meth A cells, different LF peptides were injected intratumorally (LFB-14-31, LFB 17-31 Pmc, 500 μg in a 50 μl dose; LFB 17-31, 1000 μg in a 50 μl dose), on day 7 and day 10. LFB 14-31 was also injected intraperitoneally (PBI), 500 μg/ml. Saline only was injected in the control mice (50 μl) (K1,K2,K3). The tumor diameter (mean of transversal and longitudinal) were measured with an electronic calipper.

[7] = test system: MRSE (methicilin resistant S. epidermidis); type: cell-based
Method: as §1, §2

[8] = injected intratumorally on day 7 and day 10
[9] = Table 1, synthetic lactoferricins

Compound | MIC S. aureus ([1]; Table 15) [µg/mL] | MIC MRSA ([2]; Table 15) [µg/mL] | MIC MRSA ([2]; methicillin resistant) [µM] | EC50 ([3]; red cells of human) [µM] | MIC E. coli ([4]; ATCC 25922) [µM] | MIC E. coli ([4]; Table 15) [µg/mL] | EC 50 (toxicity, hemolysis) ([3]; red cells of human) [µg/mL] | MIC MRSE ([7]; methicilin resistant) [µM] | further results
CSCC[C@H](NC(=O)[C@H](CCCN)NC(=O)[C@H](Cc1c[nH]c2ccccc12)NC(=O)[C@H](C)NC(=O)[C@H](Cc1c[nH]c2ccccc12)NC(=O)[C@H](CCCN)NC(=O)[C@H](Cc1ccccc1)NC(=O)[C@H](C)NC(=O)[C@H](CCCN)NC(=O)[C@H](CCCN)NC(=O)[C@H](Cc1c[nH]c2ccccc12)NC(=O)[C@H](C)NC(=O)[C@@H]1CCCN1)C(=O)N[C@@H](CC(C)C)C(=O)N[C@@H](CCCN)C(=O)N[C@@H](CCCN)C(=O)N[C@@H](C)C(=O)N[C@@H](C)C(=O)O (H-PAW[Orn][Orn]AF[Orn]WAW[Orn]ML[Orn][Orn]AA-OH; N-terminus assumed) | 2.5 | 2.5 | 1.2 | 202 | – | – | – | – | MIC S. aureus ([1]; ATCC 25923): 1.2 µM; EC 50 (toxicity, hemolysis) ([3]; Table 15): 425 µg/mL (≈ 202 µM)
CSCC[C@H](NC(=O)[C@H](CCCNC(=N)N)NC(=O)[C@H](Cc1c[nH]c2ccccc12)NC(=O)[C@H](C)NC(=O)[C@H](Cc1c[nH]c2ccccc12)NC(=O)[C@H](CCCNC(=N)N)NC(=O)[C@H](CCCNC(=N)N)NC(=O)[C@H](C)NC(=O)[C@H](CCCCN)NC(=O)[C@H](Cc1ccccc1)NC(=O)[C@H](Cc1c[nH]c2ccccc12)NC(=O)[C@H](C)NC(=O)[C@@H]1CCCN1)C(=O)N[C@@H](CCCCN)C(=O)N[C@@H](CCCCN)C(=O)N[C@@H](CC(C)C)C(=O)N[C@@H](C)C(=O)N[C@@H](C)C(=O)O [LFB 14-31 A2,6,10,17] | – | 5.0 | 2.2 | > 440 | 8.8 | 20.0 | >1000 | – | MIC E. coli ([4]; Table 8): 20 µg/mL
CSCC[C@H](NC(=O)[C@H](CCCNC(=N)N)NC(=O)[C@H](Cc1c[nH]c2ccccc12)NC(=O)[C@H](CCC(N)=O)NC(=O)[C@H](Cc1c[nH]c2ccccc12)NC(=O)[C@H](CCCNC(=N)N)NC(=O)[C@H](CCCNC(=N)N)NC(=O)[C@H](CSCNC(C)=O)NC(=O)[C@H](CCCCN)NC(=O)[C@H](Cc1ccccc1)NC(=O)[C@H](Cc1c[nH]c2ccccc12)NC(=O)[C@H](CCC(=O)O)NC(=O)[C@@H]1CCCN1)C(=O)N[C@@H](CCCCN)C(=O)N[C@@H](CCCCN)C(=O)N[C@@H](CC(C)C)C(=O)NCC(=O)N[C@@H](C)C(=O)O [LFB 14-31] | – | – | – | – | – | – | – | – | Minimum inhibitory concentration (MIC) E. coli ATCC 25922 ([4]; Table 1, value in parentheses): 28 µM; Minimum inhibitory concentration (MIC) S. aureus ATCC 25923 ([1]; Table 1, value in parentheses): 80 µM; cytotoxic effect on human HL 60 cells [5]: no cytotoxic effect; effect on Meth A tumors [6, 8]: induced regression of the Meth A tumors; effect on Meth A tumors ([6]; treated intraperitoneally): tumors were also eradicated
CSCC[C@H](NC(=O)[C@H](CCCNC(=N)N)NC(=O)[C@H](Cc1c[nH]c2ccccc12)NC(=O)[C@H](CCC(N)=O)NC(=O)[C@H](Cc1c[nH]c2ccccc12)NC(=O)[C@H](CCCNC(=N)N)NC(=O)[C@H](CCCNC(=N)N)NC(=O)[C@H](CSCNC(C)=O)NC(=O)[C@H](CCCCN)NC(=O)[C@@H](N)Cc1ccccc1)C(=O)N[C@@H](CCCCN)C(=O)N[C@@H](CCCCN)C(=O)N[C@@H](CC(C)C)C(=O)NCC(=O)N[C@@H](C)C(=O)O [LFB 17-31, H2N-Phe-Lys-Cys-Arg-Arg-Trp-Gln-Trp-Arg-Met-Lys-Lys-Leu-Gly-Ala-COOH] | – | – | – | – | – | – | – | – | Minimum inhibitory concentration (MIC) E. coli ATCC 25922 ([4]; Table 1, value in parentheses): 20 µM; Minimum inhibitory concentration (MIC) S. aureus ATCC 25923 ([1]; Table 1, value in parentheses): 50 µM; cytotoxic effect on human HL 60 cells ([5]; FIG. 7, concentrations tested): no cytotoxic effect; effect on Meth A tumors [6, 8]: induced regression of the Meth A tumors
CC[C@H](C)[C@H](NC(=O)[C@H](CO)NC(=O)[C@@H]1CCCN1C(=O)[C@H](C)NC(=O)CNC(=O)[C@H](CC(C)C)NC(=O)[C@H](CCCCN)NC(=O)[C@H](CCCCN)NC(=O)[C@H](CCSC)NC(=O)[C@H](CCCNC(=N)N)NC(=O)[C@H](Cc1c[nH]c2ccccc12)NC(=O)[C@H](CCC(N)=O)NC(=O)[C@H](Cc1c[nH]c2ccccc12)NC(=O)[C@H](CCCNC(=N)N)NC(=O)[C@H](CCCNC(=N)N)NC(=O)[C@H](CSCNC(C)=O)NC(=O)[C@H](CCCCN)NC(=O)[C@@H](N)Cc1ccccc1)C(=O)N[C@H](C(=O)N[C@@H](CSCNC(C)=O)C(=O)N[C@H](C(=O)N[C@@H](CCCNC(=N)N)C(=O)N[C@@H](CCCNC(=N)N)C(=O)N[C@@H](C)C(=O)N[C@@H](Cc1ccccc1)C(=O)O)C(C)C)[C@@H](C)O [LFB (17-41), reference compound] | – | – | – | – | – | – | – | – | Minimum inhibitory concentration (MIC) E. coli ATCC 25922 [4, 9]: 30 µg/mL; Minimum inhibitory concentration (MIC) S. aureus ATCC 25923 [1, 9]: 30 µg/mL; cytotoxic effect on human HL 60 cells ([5]; FIG. 7, concentrations tested): weak concentration dependant cytotoxic effect
CSCC[C@H](NC(=O)[C@H](CCCNC(=N)N)NC(=O)[C@H](Cc1ccc2ccccc2c1)NC(=O)[C@H](CCC(N)=O)NC(=O)[C@H](Cc1ccc2ccccc2c1)NC(=O)[C@H](CCCNC(=N)N)NC(=O)[C@H](CCCNC(=N)N)NC(=O)[C@H](CSCNC(C)=O)NC(=O)[C@H](CCCCN)NC(=O)[C@@H](N)Cc1ccccc1)C(=O)N[C@@H](CCCCN)C(=O)N[C@@H](CCCCN)C(=O)N[C@@H](CC(C)C)C(=O)NCC(=O)N[C@@H](C)C(=O)O [LFB Nal6,8] | 20.0 | 5.0 | – | – | – | 10.0 | >1000 | – | MIC E. coli ([4]; Table 9): 10 µg/mL; MIC S. aureus ([1]; Table 9): 20 µg/mL
CSCC[C@H](NC(=O)[C@H](CCCNC(=N)N)NC(=O)[C@H](Cc1c[nH]c2ccccc12)NC(=O)[C@H](CCC(N)=O)NC(=O)[C@H](Cc1c(S(=O)(=O)c2c(C)c(C)c3c(c2C)CCC(C)(C)O3)[nH]c2ccccc12)NC(=O)[C@H](CCCNC(=N)N)NC(=O)[C@H](CCCNC(=N)N)NC(=O)[C@H](CSCNC(C)=O)NC(=O)[C@H](CCCCN)NC(=O)[C@@H](N)Cc1ccccc1)C(=O)N[C@@H](CCCCN)C(=O)N[C@@H](CCCCN)C(=O)N[C@@H](CC(C)C)C(=O)NCC(=O)N[C@@H](C)C(=O)O [LFB PMC6] | 2.5 | 2.5 | 1.1 | – | 4.3 | 10.0 | >1000 | – | MIC E. coli ([4]; Table 13): 10 µg/mL
H-FKWRRWQWRMKKLWA-OH [LFBW3,14, H2N-Phe-Lys-Trp-Arg-Arg-Trp-Gln-Trp-Arg-Met-Lys-Lys-Leu-Trp-Ala-COOH] | – | – | 1.1 | – | 4.5 | – | >1000 | 1.1 | MIC E. coli ([4]; Table 14): 10 µg/mL; MIC E. coli ([4]; Table 15, 14): 10.0 µg/mL; MIC S. aureus ([1]; Table 15, 14): 2.5 µg/mL; MIC MRSA ([2]; Table 15, 14): 2.5 µg/mL; MIC MRSE ([7]; Table 15, 14): 2.5 µg/mL
RRWYRWWR-NH2 [LFM 17-24 R1,2,8 W3,7Y4NH2] | – | 1.0 | 0.7 | > 733 | 3.7 | 5.0 | >1000 | 1.8 | MIC E. coli ([4]; Table 12): 5 µg/mL; MIC MRSE ([7]; Table 15): 2.5 µg/mL
RWWRYWR-NH2 [LFM 18-24 R1,7 W2,3,6Y5NH2, ARG-TRP-TRP-ARG-TYR-TRP-ARG-CONH2] | – | – | – | > 829 | 8.3 | 10.0 | >1000 | 0.8 | MIC E. coli ([4]; Table 12): 10 µg/mL; MIC E. coli ([4]; Table 16, peptides with D-amino acids): 10 µg/mL; MIC S. aureus ([1]; ATCC 25923): 0.4 to 0.8 µM; MIC MRSE ([7]; Table 15): 1.0 µg/mL
YRAWRWAWRWR-NH2 [LFB 17-27 A3,7 R2,11 W4,10 Y1 NH2] | 2.5 | – | – | – | 5.9 | 10.0 | – | 1.5 | MIC S. aureus ([1]; ATCC 25923): 1.5 µM; MIC MRSE ([7]; Table 15): 2.5 µg/mL
